Data as given in PubChem BioAssay (NCI).
Several values for one entry are separate records, joined by “and”; a condition that tells them apart may be missing. Equal entries are not always repeated.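 These data come from cells grown in 96-well plates and exposed to compound for 48 hours at five concentrations. GI50 marks 50% less growth. At the TGI there is no net growth.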

Tests used:
Test in all cases: inhibition of tumour cell growth, NCI panel, 48 h
CCRF-CEM leukemia = system: CCRF-CEM leukemia
HL-60(TB) leukemia = system: HL-60(TB) leukemia
NCI-H23 lung = system: NCI-H23 lung
LOX IMVI melanoma = system: LOX IMVI melanoma
HCT-15 colon = system: HCT-15 colon
SF-539 CNS = system: SF-539 CNS
NCI-H460 lung = system: NCI-H460 lung
786-0 renal = system: 786-0 renal
MDA-MB-435 = system: MDA-MB-435
SK-OV-3 ovarian = system: SK-OV-3 ovarian

SMILES | TGI (CCRF-CEM leukemia) | TGI (HL-60(TB) leukemia) | TGI (NCI-H23 lung) | TGI (LOX IMVI melanoma) | TGI (HCT-15 colon) | TGI (SF-539 CNS) | TGI (NCI-H460 lung) | TGI (786-0 renal) | GI50 (CCRF-CEM leukemia) [nM] | GI50 (MDA-MB-435) [nM] | TGI (MDA-MB-435) [µM] | GI50 (NCI-H23 lung) | GI50 (LOX IMVI melanoma) | GI50 (HCT-15 colon) [nM] | GI50 (SF-539 CNS) [nM] | GI50 (NCI-H460 lung) [µM] | GI50 (786-0 renal) | GI50 (SK-OV-3 ovarian) [µM] | TGI (SK-OV-3 ovarian) | GI50 (HL-60(TB) leukemia) [µM]
C=CCC1(CN(C)C)CC/C(=C\c2ccc3c(c2)OCO3)C1=O (stereo not given) | 81.4 µM | 15.8 µM | > 100 µM | > 100 µM | > 100 µM | > 100 µM | > 100 µM | > 100 µM |  |  |  |  |  |  |  |  |  |  |  | 
O=C(Nc1nc2c(C(F)(F)F)cccc2s1)c1cc(Cl)ccc1O | 12.5 µM |  | 1.44 µM | 10.8 µM | 13.2 µM | 1.96 µM | 10.8 µM | 12.2 µM | 328 | 323 | > 100 | 296 nM | 320 nM | 338 | 286 | 0.32 | 337 nM | 0.236 | 0.797 µM | 
C=CCc1c(O)c(C(=O)/C=C/c2ccc(Cl)cc2)c(OC)c2ccoc12 | > 100 µM |  | 11.6 µM | 3.08 µM | 12.9 µM | 3.85 µM | 12.1 µM | 18.6 µM | 3330 | 2060 | 4.53 | 2780 nM | 1630 nM | 3400 | 1790 | 3.2 | 4830 nM | 5.96 | 19.2 µM | 
NC(=O)NNC/C(Cl)=C(\Cl)C(=O)O | > 100 µM | > 100 µM | > 100 µM | > 100 µM | > 100 µM | > 100 µM | > 100 µM | > 100 µM |  |  |  |  |  |  |  |  |  |  | > 100 µM | 
Nc1nc2cc(Cl)ccc2n1N | > 100 µM | > 100 µM | > 100 µM | > 100 µM | > 100 µM | > 100 µM |  | > 100 µM |  |  | > 100 |  |  |  |  |  |  |  | > 100 µM | 
CC1(c2ccc(F)cc2)C2C(=O)NC(=O)C1C(=O)NC2=O (stereo not given) | > 100 µM | > 100 µM | > 100 µM | > 100 µM | > 100 µM | > 100 µM | > 100 µM | > 100 µM |  |  |  |  |  |  |  |  |  |  | > 100 µM | 
Oc1c(C(Nc2ccccn2)c2ccccc2)ccc2cccnc12 (stereo not given) | 3.81 µM | 6.17 µM | > 77 µM | 37.9 µM | > 100 µM | 9.68 µM |  | > 37.2 µM |  |  | > 100 |  |  |  |  |  |  |  | 63.8 µM | 
O=C(NC1CCC[C@H]1OC(=O)c1ccccc1)c1ccccc1 (stereo not given in full) | > 100 µM | > 100 µM | > 100 µM |  |  | > 100 µM | > 100 µM | > 100 µM |  |  |  |  |  |  |  |  |  |  | > 100 µM | 
CCCCCCCCCC1CC(=O)OC2=C1C(=O)CCC2 (stereo not given) | > 100 µM | > 100 µM | > 100 µM | > 100 µM |  | > 100 µM | > 100 µM | > 100 µM |  |  |  |  |  |  |  |  |  |  | > 100 µM | 
CC1C(c2ccccc2)N(C)C(c2ccccc2)C(C)C1(O)c1ccccc1 (stereo not given) | > 100 µM | > 100 µM | > 100 µM | > 100 µM | > 100 µM | > 100 µM | > 100 µM | > 100 µM |  |  |  |  |  |  |  |  |  |  | > 100 µM | 
COc1cc(/C=C2\[C@@H]3NC(Cc4c(OC)c(C)c(OC)c(OC)c43)C(=O)N2Cc2ccccc2)c(OC)c(C)c1OC | > 100 µM | 62.8 µM | > 100 µM | > 100 µM |  | > 100 µM | 60.7 µM | > 100 µM |  |  |  |  |  |  |  |  |  |  | > 100 µM | 
O=C(Nc1ccc(Cl)c(Cl)c1)c1ccc(NC2=C(Cl)C(=O)N(Cc3ccccc3)C2=O)cc1 | 7.79 µM | 7.68 µM | 27.4 µM |  |  | 30.1 µM | 22.8 µM | 20.1 µM | 2300 | 5620 | 19.5 | 14200 nM |  |  | 16000 | 9.32 | 7740 nM | 21.5 | 44 µM | 2.82
CCCCCCCCCCCCCCNCC(OC)OC | 36.4 µM | 23 µM | 36.8 µM | 33.5 µM | 25.7 µM | 30.9 µM | 34.1 µM | 31 µM |  |  |  |  |  |  |  |  |  |  | 33.1 µM | 
CCO/C=C\C12CCCC1NC(c1ccccc1)(c1ccccc1)O2 (stereo not given) | 51 µM | 45.2 µM | 80.2 µM |  |  | 66 µM | > 100 µM | > 100 µM |  |  |  |  |  |  |  |  |  |  | > 100 µM | 
Cc1ccc(NC(=O)COc2ccc(Cl)cc2)cc1Cl | 85.9 µM |  | 74.9 µM | > 100 µM | > 100 µM | > 100 µM | > 100 µM | > 100 µM |  |  | > 100 |  |  |  |  |  |  |  | > 100 µM | 
CC1(C)CC(=O)C(CC2C(=O)CCCC2=O)C(=O)C1 | > 100 µM | > 100 µM | > 100 µM | > 100 µM | > 100 µM | > 100 µM | > 100 µM | > 100 µM |  |  |  |  |  |  |  |  |  |  | > 100 µM | 
COC(=O)[C@]1(C)CCC[C@@]2(C)C3=C(CC[C@H]12)C[C@@H](CC(OC(C)=O)OC(C)=O)[C@@H](C)C3 |  | > 50 µM | 16.7 µM | > 50 µM | > 40.7 µM | 20.3 µM | 25.3 µM | 17.2 µM |  | 9960 | 20.5 | 9150 nM | > 50000 nM | 15400 | 10700 | 9.2 | 8970 nM | 20.7 | > 50 µM | 14.4
COc1cc(C2c3cc4c(cc3[C@@H](NC3CCN(Cc5ccccc5)CC3)C3COC(=O)[C@H]23)OCO4)cc(OC)c1O (stereo not given in full) | 0.232 µM and 0.12 µM | 0.2 µM and 0.0548 µM | 0.623 µM and 0.224 µM | 1.18 µM and 0.231 µM | 0.536 µM and 0.432 µM | 0.263 µM and 0.194 µM | 0.194 µM and 0.116 µM | 0.668 µM and 0.221 µM |  |  |  | 126 nM and 40.6 nM | 145 nM and 34.9 nM |  |  | < 0.01 | 161 nM and 33.3 nM |  | 0.445 µM and 0.503 µM | 
CCOC(=O)N1CCC(N=C2CSc3nnc(-c4cc(C(F)(F)F)cc(C(F)(F)F)c4)n3N2)CC1 | 5.28 µM |  | 8.37 µM | 3.45 µM | 5.4 µM | 3.88 µM | 4.1 µM | 5.21 µM | 2010 | 1580 | 3 | 2660 nM | 1770 nM | 2290 | 2060 | 2.11 | 2180 nM | 3.21 | 8.71 µM | 
COc1ccc(N=NC2=C(O)CCC2=O)cc1 | > 100 µM | > 100 µM | > 100 µM | > 100 µM | > 100 µM | > 100 µM | > 100 µM | > 100 µM |  |  |  |  |  |  |  |  |  |  | > 100 µM | 
